Results taken from US20210253598A1, “ARYL ANNULATED MACROCYCLIC INDOLE DERIVATIVES” (priority 2017, published 2021).
Structures can show the parent of a compound that is named as a salt. Where two headings read alike, the source gives them in different places.

What was measured:
SUDHL5 [1] = assay: Induction of cytotoxicity in SUDHL5 cells, CellTiter-Glo (Assay 6); type: cell-based; settings: SUDHL5, 5 hours incubation, median, read-out: Cytotox SUDHL5 [M] (median)
Method in brief: (§1)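 Luminescent ATP readout (CellTiter-Glo, 15 min at room temperature) quantifies cytotoxicity after a 5 h compound exposure at 37 °C.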

SUDHL10 [2] = assay: Induction of cytotoxicity in SUDHL10 cells, CellTiter-Glo (Assay 6); type: cell-based; settings: SUDHL10, 5 hours incubation, median, read-out: Cytotox SUDHL10 [M] (median)
Method in brief: as §1

AMO-1 = assay: Anti-proliferative effect in AMO-1 cells, CellTiter-Glo (Assay 7); type: cell-based; settings: several values per example
Description: (§2) Assessment of the Anti-Proliferative Effect of Compounds in Different Cell Lines
(§3) The impact of compounds on the proliferation of different cell lines was assessed using the CellTiter-Glo® Luminescent Cell Viability reagent from Promega (G7573).
(§4) In parallel, cells were plated in a reference (day 0) plate for time zero determination. Cells were incubated in a humidified incubator at 37° C. overnight.
(§5) Rim wells were excluded. The cells were incubated for 72 hours in a humidified incubator at 37° C. The day 0 plate was measured by adding 30 μL/well of CTG solution (CellTiter-Glo® Luminescent Cell Viability reagent, Promega G7573) to time zero wells in the reference plate followed by a 10 minutes incubation and luminescence reading at 0.1 ms. using the PHERAstar FS microplate reader (BMG Labtech).
(§6) After 72 hours incubation, the treated plates were measured in the same way as the day 0 plate mentioned above. The Bella DRC Master Sheet was used to calculate IC50s, with CI=day 0 values and C0=DMSO control values.

SUDHL5 [3] = assay: Induction of caspase-3/7 activity in SUDHL5 cells (Assay 4); type: cell-based; settings: Homo sapiens, SU-DHL-5, 3 h
Method in brief: (§7)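 Luminescent Caspase-Glo 3/7 read-out in SUDHL5 and SUDHL10 cells after 3 h compound exposure at 37 °C, followed by 1 h reagent incubation.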

MV-4-11 = assay: Anti-proliferative effect in MV-4-11 cells, CellTiter-Glo (Assay 7); type: cell-based; settings: several values per example
Description: as §2, §3, §4, §5, §6

SUDHL10 [4] = assay: Induction of caspase-3/7 activity in SUDHL10 cells (Assay 4); type: cell-based; settings: Homo sapiens, SU-DHL10, 3 h
Method in brief: as §7

SUDHL5 [5] = assay: Anti-proliferative effect in SUDHL5 cells, CellTiter-Glo (Assay 7); type: cell-based; settings: Homo sapiens, SU-DHL-5, 72 h
Method in brief: (§8)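 72 h CTG viability assay, 37 °C, humidified. Time-zero plate as baseline; IC50 vs day 0 and DMSO controls.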

MCL-1 = MCL-1 (Homo sapiens, UniProt Q07820, K194A/K197A/R201A); assay: Protein-protein interaction assay MCL-1/Noxa BH3 peptide, TR-FRET (MCL-1 assay, Assay 1); type: binding; settings: MCL-1 Assay [M] (median), MBP-MCL-1 / Noxa BH3 peptide
Sequence of MCL-1 (Q07820 173-321 K194A/K197A/R201A, looked up): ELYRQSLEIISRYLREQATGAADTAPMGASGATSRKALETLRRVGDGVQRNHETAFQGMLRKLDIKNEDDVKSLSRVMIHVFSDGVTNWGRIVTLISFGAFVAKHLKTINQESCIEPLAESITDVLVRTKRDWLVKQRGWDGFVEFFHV
Method in brief: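 TR-FRET competition between compounds and a biotin-PEG Noxa BH3 tracer for 1 nM MBP-MCL-1 (residues 173-321). Incubation was 1 h at 22 °C in the dark, then overnight at 4 °C, in 50 mM Tris pH 7 buffer with KF and DTT, after a 10-min compound pre-equilibration. Normalized ratios were fitted with a 4-parameter Hill equation to give IC50.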

A2780 = assay: Anti-proliferative effect in A2780 cells, CellTiter-Glo (Assay 7); type: cell-based; settings: Homo sapiens, A2780, 72 h, read-out: Antiproli A2780 [M], A2780, 72 hours incubation, CellTiter-Glo; several values per example
Method in brief: as §8

[6] = Homo sapiens, AMO1, 72 h, AMO-1, 72 hours incubation, CellTiter-Glo, read-out: Antiproli AMO-1
[7] = SUDHL5, 3 hours treatment, Caspase-Glo 3/7, median, read-out: Caspase SUDHL5 [M] (median)
[8] = Homo sapiens, MV4-11, 72 h, MV-4-11, 72 hours incubation, CellTiter-Glo, read-out: Antiproli MV-4-11
[9] = SUDHL10, 3 hours treatment, Caspase-Glo 3/7, median, read-out: Caspase SUDHL10 [M] (median)
[10] = SUDHL5, 72 hours incubation, CellTiter-Glo, median, read-out: Antiproli SUDHL5 [M] (median)
[11] = read-out: Antiproli SUDHL5 [M] (median), SUDHL5, 72 hours incubation, CellTiter-Glo
[12] = read-out: Caspase SUDHL5 [M] (median), SUDHL5, 3 hours treatment, Caspase-Glo 3/7
[13] = Homo sapiens, MV4-11, 72 h, read-out: Antiproli MV-4-11 [M], MV-4-11, 72 hours incubation, CellTiter-Glo
[14] = read-out: Caspase SUDHL10 [M] (median), SUDHL10, 3 hours treatment, Caspase-Glo 3/7

EC50 (SUDHL5 [3]; [7]) [M]	IC50 (MV-4-11; [8]) [M]	EC50 (SUDHL10 [4]; [9]) [M]	IC50 (SUDHL5 [5]; [10]) [M]	Structure (SMILES)	IC50 (SUDHL5 [1]; Homo sapiens, SU-DHL-5, 5 h) [M]	IC50 (SUDHL10 [2]; Homo sapiens, SU-DHL10, 5 h) [M]	IC50 (AMO-1; [6]) [M]	IC50 (AMO-1; AMO-1, 72 hours incubation, CellTiter-Glo, read-out: Antiproli AMO-1) [M]	IC50 (MV-4-11; MV-4-11, 72 hours incubation, CellTiter-Glo, read-out: Antiproli MV-4-11) [M]	IC50 (MCL-1) [M]	IC50 (SUDHL5 [1]) [M]	IC50 (SUDHL10 [2]) [M]	IC50 (SUDHL5 [5]; [11]) [M]	EC50 (SUDHL5 [3]; [12]) [M]	IC50 (MV-4-11; [13]) [M]	IC50 (A2780) [M]	EC50 (SUDHL10 [4]; [14]) [M]	IC50 (AMO-1; Homo sapiens, AMO1, 72 h, read-out: Antiproli AMO-1 [M], AMO-1, 72 hours incubation, CellTiter-Glo) [M]
2.2e-06	1.19e-05	7.9e-06		Cc1c2c(nn1C)COCc1nccnc1Cn1c(C(=O)O)c(CCCOc3cccc4ccccc34)c3ccc(Cl)c-2c31 (racemic) [Example 45, (rac)-3-Chloro-4,5-dimethyl-17-{3-[(naphthalen-1-yl)oxy]propyl}-5,7,9,14-tetrahydropyrazino-[2′,3′:3,4]pyrazolo[4′,3′:9,10][1,6]oxazacycloundecino[8,7,6-hi]indole-16-carboxylic Acid]	2.7e-06	8.2e-06	9.56e-06											
4.6e-06	1.18e-05	1.2e-05	4.9e-06	Cc1nn(C)c2c1-c1c(F)ccc3c(CCCOc4cccc5c4CCCC5)c(C(=O)O)n(c13)Cc1ccccc1COC2 (racemic) [Example 83, (rac)-15-Fluoro-12,14-dimethyl-1-(3-((5,6,7,8-tetrahydronaphthalen-1-yl)oxy)propyl)-4,9,11,12-tetrahydrobenzo[3,4]pyrazolo[4′,3′:9,10][1]oxa[6]azacycloundecino[8,7,6-hi]indole-2-carboxylic Acid]	3.4e-06	5.5e-06	1.61e-05			1e-08								
3.7e-06	1.7e-05	2e-05	6.9e-06	Cc1cc(OCCCc2c(C(=O)O)n3c4c(c(F)ccc24)-c2c(C)nn(C)c2COCc2ccccc2C3)cc(C)c1Cl (racemic) [Example 85, (rac)-1-(3-(4-chloro-3,5-dimethylphenoxy)propyl)-15-fluoro-12,14-dimethyl-4,9,11,12-tetrahydrobenzo[3,4]pyrazolo[4′,3′:9,10][1]oxa[6]azacycloundecino[8,7,6-hi]indole-2-carboxylic Acid]	3.3e-06	6.5e-06	2.37e-05			1.2e-08								
2.7e-06	1.42e-05	6.9e-06	4.3e-06	CCc1nn(C)c2c1-c1c(F)ccc3c(CCCOc4cc(C)c(Cl)c(C)c4)c(C(=O)O)n(c13)Cc1ccccc1COC2 (racemic) [Example 86, (rac)-1-(3-(4-Chloro-3,5-dimethylphenoxy)propyl)-14-ethyl-15-fluoro-12-methyl-4,9,11,12-tetrahydrobenzo[3,4]pyrazolo[4′,3′:9,10][1,6]oxaazacycloundecino[8,7,6-hi]indole-2-carboxylic Acid]	2.9e-06	5.2e-06	1.69e-05			1.1e-08								
2.9e-06	8.44e-06	8.3e-06	4e-06	CCc1nn(C)c2c1-c1c(F)ccc3c(CCCOc4ccc(F)c5ccccc45)c(C(=O)O)n(c13)Cc1ccccc1COC2 (racemic) [Example 89, (rac)-14-Ethyl-15-fluoro-1-(3-((4-fluoronaphthalen-1-yl)oxy)propyl)-12-methyl-4,9,11,12-tetrahydrobenzo[3,4]pyrazolo[4′,3′:9,10][1,6]oxaazacycloundecino[8,7,6-hi]indole-2-carboxylic Acid]	2.6e-06	7.5e-06	1.28e-05			1.2e-08								
				Cc1c2c(nn1C)COCc1ncccc1Cn1c(C(=O)O)c(CCCOc3cccc4ccccc34)c3ccc(Cl)c-2c31 (single isomer, unassigned; enantiomer 2) [Example 44, 3-Chloro-4,5-dimethyl-17-[3-(naphthalen-1-yloxy)propyl]-5,7,9,14-tetrahydropyrazolo-[4′,3′:9,10]pyrido[2′,3′:3,4][1,6]oxazacycloundecino[8,7,6-hi]indole-16-carboxylic acid-N-ethylethanamine Salt (Enantiomer 2)]	7.9e-06	1.5e-05				5.2e-09			5.7e-06	7.8e-06	1.54e-05	2.37e-05	1.5e-05	
				CCc1nn(C)c2c1-c1c(Cl)ccc3c(CCCOc4cccc5cc(F)ccc45)c(C(=O)O)n(c13)Cc1ccccc1COC2 (single isomer, unassigned; enantiomer 2) [Example 59, (−)-3-Chloro-4-ethyl-17-{3-[(6-fluoronaphthalen-1-yl)oxy]propyl}-6-methyl-6,7,9,14-tetrahydro-indolo[7,1-fg]pyrazolo[3,4-d][2,8]benzoxazacycloundecine-16-carboxylic acid-N-ethylethanamine Salt (Enantiomer 2)]	2.2e-06	8.2e-06				1e-08			2.6e-06	1.9e-06	4.5e-06		7.9e-06	7.14e-06

Structure (SMILES)	EC50 (SUDHL5 [3]; [7]) [M]	IC50 (MV-4-11; [8]) [M]	EC50 (SUDHL10 [4]; [9]) [M]	IC50 (SUDHL5 [5]; [10]) [M]	IC50 (SUDHL5 [1]; Homo sapiens, SU-DHL-5, 5 h) [M]	IC50 (SUDHL10 [2]; Homo sapiens, SU-DHL10, 5 h) [M]	IC50 (AMO-1; [6]) [M]	IC50 (AMO-1; AMO-1, 72 hours incubation, CellTiter-Glo, read-out: Antiproli AMO-1) [M]	IC50 (MV-4-11; MV-4-11, 72 hours incubation, CellTiter-Glo, read-out: Antiproli MV-4-11) [M]	IC50 (MCL-1) [M]	IC50 (SUDHL5 [1]) [M]	IC50 (SUDHL10 [2]) [M]	IC50 (SUDHL5 [5]; [11]) [M]	EC50 (SUDHL5 [3]; [12]) [M]	IC50 (MV-4-11; [13]) [M]	IC50 (A2780) [M]	EC50 (SUDHL10 [4]; [14]) [M]	IC50 (AMO-1; Homo sapiens, AMO1, 72 h, read-out: Antiproli AMO-1 [M], AMO-1, 72 hours incubation, CellTiter-Glo) [M]
CCc1nn(CCN2CCOCC2)c2c1-c1c(Cl)ccc3c(CCCOc4cccc5cc(F)ccc45)c(C(=O)O)n(c13)Cc1ccccc1COC2 (racemic) [Example 51, (rac)-3-Chloro-4-ethyl-17-{3-[(6-fluoronaphthalen-1-yl)oxy]propyl}-6-[2-(morpholin-4-yl)ethyl]-6,7,9,14-tetrahydroindolo[7,1-fg]pyrazolo[3,4-d][2,8]benzoxazacycloundecine-16-carboxylic Acid]	8.7e-07	1.96e-06	1.8e-06	7.1e-07	1.1e-06	1.9e-06	4.26e-06	2.64e-06	2.58e-06	1.5e-09								
Cc1c2c(nn1C)CN(C)Cc1ccccc1Cn1c(C(=O)O)c(CCCOc3cccc4ccccc34)c3cccc-2c31 (single isomer, unassigned; enantiomer 2) [Example 16, 4,5,8-Trimethyl-17-[3-(naphthalen-1-yloxy)propyl]-7,8,9,14-tetrahydro-5H-indolo[1,7-bc]pyrazolo[4,3-e][2,8]benzodiazacycloundecine-16-carboxylic Acid (Enantiomer 2)]	2.4e-05	1.15e-05	> 3.3e-05				2.03e-05			1.1e-07	2.4e-05	3e-05						
